The values that follow come from US20150038435A1, “N-TERMINALLY MODIFIED OLIGOPEPTIDES AND USES THEREOF” (Novo Nordisk A/S, priority 2012, published 2015).

One series relates to Chymotrypsin. Kind of series: Inhibition of enzymatic degradation of a model GLP-1 (FRET substrate) by chymotrypsin. It is filed as biochemical. The following applies: for EC50: read-out: EC50 Chymotrypsin (0.001 mg/ml), 0.001 mg/ml chymotrypsin, 37° C., ± standard error if at least 3 measurements. An excerpt:
(§1) The use of Förster resonance energy transfer (FRET), also known as fluorescence resonance energy transfer, substrates to monitor activity of proteolytic enzymes is known in the field (for example Anjuere, F. et al. (1993). Biochem J 291 (Pt 3), 869-73).
(§2) Model GLP-1 analogue was designed as FRET substrate by incorporation of 7-Methoxycoumarin-4-acetic acid (MCA) group as the donor chromophore and dinitrophenol group (DNP) as the acceptor chromophore.
(§3) An assay following the increase in fluorescence as a function of time was established in 96 well format using Varioskan Flash Multimode Meter (Thermo Scientific). Each well contained 70 μl of Dulbecco's phosphate buffer saline (Invitrogen catalogue #14190-094), 10 μl of 100 μM GLP-1 FRET substrate, 10 μl of N-terminally acylated peptide or oligopeptide of the invention in varying concentration and 10 μl of a stock solution of an enzyme (chymotrypsin, trypsin, elastase, etc.). The incubations were performed at 37° C. Fluorescence (320 nm excitation wavelength and 405 nm emission wavelength) was measured immediately after addition of the enzyme to the 96 well plate and also every minute for at least the next 30 minutes. The concentration of the enzyme was optimized to allow determination of slopes for the time course of initial fluorescence increase with and without the N-terminally acylated peptides or oligopeptides of the invention. The slopes were determined by linear regression of the linear part of the fluorescence trace (for example, the first 10 min of the reaction). Each assay was performed in duplicate and average of the two traces was included in the calculations. The relative effect of N-terminally acylated peptide or oligopeptides of the invention on enzymatic degradation of GLP-1 FRET substrate was obtained by comparison of the slopes achieved by the same concentration of the N-terminally acylated peptide or oligopeptides. […] This was done by plotting the slopes achieved with different concentrations of the N-terminally acylated peptide or oligopeptides of the invention as a function of their concentrations and fitting the experimental results using, for example, sigmoidal logistic regression (2 parameters, Sigma Plot v 11). Inhibition constants for the interaction between the N-terminally acylated peptide or oligopeptides of the invention and proteolytic enzymes were also obtained by performing the assay described above with varying concentrations of the inhibitor and substrate and analyzing the results, for example, by double reciprocal transformation as known to the person skilled in the art and described for example in Hubalek, F. et al., J. Med. Chem. 47, 1760-1766 (2004).
(§4) The EC50 was determined for the following compounds. EC50±standard error is reported if the results of at least 3 independent measurements were available.

For another series, the system named is Trypsin. As to the kind of experiment: Inhibition of enzymatic degradation of a model GLP-1 (FRET substrate) by trypsin. The following applies: for EC50: read-out: EC50 Trypsin (0.001 mg/ml), 0.001 mg/ml trypsin, 37° C. Type of series: biochemical.
From the text: as §1, §2, §3, §4

Series [1] can be described thus: Hydrophobicity: retention time during reverse phase HPLC. The following applies: Acquity CSH C18; pH 7.2 buffer/CH3CN gradient; 40° C. It is filed as physicochemical. From the text: The retention time (RT) during reverse phase HPLC was taken as a measure of hydrophobicity of an N-terminally modified peptide or oligopeptide of the invention, where the connection is: The longer the RT, the more hydrophobic N-terminally modified peptide or oligopeptide. The following running conditions were applied during HPLC analysis:
Buffer B: 70% (v/v) aq. CH3CN

[2] abbreviates: compound 0.1 mM, buffer containing 8% DMSO.

Starred links: 1 amine or outer side, 2 acyl side, 3 side chain; linkers in the order of their positions; H or OH if unused. Non-standard residues stand in square brackets, D forms with d. *: point of attachment. γGlu = O=C(O)[C@H](CCC(=O)[*:2])N[*:1]; βAsp = O=C(O)[C@H](CC(=O)[*:2])N[*:1]; C12 diacid = O=C(O)CCCCCCCCCCC(=O)*; Myristoyl = CCCCCCCCCCCCCC(=O)*; Lauroyl = CCCCCCCCCCCC(=O)*; Decanoyl = CCCCCCCCCC(=O)*

Consider Ala-Ala-Pro-Phe-OH [Example 14], for which the “Slope of the initial increase in fluorescence obtained during incubation with 0.001 mg/ml Chymotrypsin” value with Chymotrypsin (compound 1 mM) worked out at 3.53. The “Slope of the initial increase in fluorescence obtained during incubation with 0.001 mg/ml Trypsin” value in the series with Trypsin (compound 1 mM) is 4.46. In series [1], the “RT (retention time during reverse phase HPLC as a measure of hydrophobicity)” value (from here on “RT”) is given as 3.08 min.

Take “N-decanoyl-Ala-Ala-Pro-Arg-OH (Decanoyl-AAPR-OH; SMILES CCCCCCCCCC(=O)N[C@@H](C)C(=O)N[C@@H](C)C(=O)N1CCC[C@H]1C(=O)N[C@@H](CCCNC(=N)N)C(=O)O) [Example 20]”: the EC50 in the series with Chymotrypsin is over 500 µM. Also, in series [1], the “RT” value came to 3.79 min.

With “N-dodecandioyl-Ala-Ala-Pro-Phe-OH ({C12 diacid}-AAPF-OH) [Example 15]”, the “Slope of the initial increase in fluorescence obtained during incubation with 0.001 mg/ml Chymotrypsin” value in the series with Chymotrypsin (compound 1 mM) was 2.07. Also, the “Slope of the initial increase in fluorescence obtained during incubation with 0.001 mg/ml Trypsin” value with Trypsin (compound 1 mM) worked out at 4.17. For the same substance, the “RT” value in series [1] turned out to be 3.13 min.

Consider “N-dodecanoyl-Aib-Aib-Pro-Phe-OH [Example 7]”, for which the “Slope of the initial increase in fluorescence obtained during incubation with 0.001 mg/ml Chymotrypsin” value in the series with Chymotrypsin (compound 1 mM) is on record as 0.34. Besides, in the series on Trypsin (compound 1 mM), the “Slope of the initial increase in fluorescence obtained during incubation with 0.001 mg/ml Trypsin” value was determined as 0.49. Further, in series [1], the “RT” value was determined as 8.06 min.

As for “N-dodecanoyl-Ala-Ala-Ala-Ala-Pro-Phe-OH [Example 19]”, the values for the EC50 in the series with Chymotrypsin and with Trypsin were 121 µM and 38 µM, respectively. Moreover, the “RT” value in series [1] is 6.57 min.

In the case of “N-dodecanoyl-Ala-Ala-Ala-Pro-Phe-OH [Example 18]”, the EC50 with Chymotrypsin stood at 167 µM. Moreover, the “RT” value in series [1] came out at 6.59 min.

For “N-dodecanoyl-Ala-Ala-Ala-Pro-Tyr-OH [Example 56]”, the “Slope of the initial increase in fluorescence obtained during incubation with 0.001 mg/ml Chymotrypsin” value in the series on Chymotrypsin (setting [2]) is on record as 0.59. Also, the “Slope of the initial increase in fluorescence obtained during incubation with 0.001 mg/ml Trypsin” value with Trypsin (setting [2]) came out at 1.92. The “RT” value in series [1] amounted to 5.74 min.

Turning to “N-dodecanoyl-Ala-Ala-Ala-Tyr-OH (Lauroyl-AAAY-OH; SMILES CCCCCCCCCCCC(=O)N[C@@H](C)C(=O)N[C@@H](C)C(=O)N[C@@H](C)C(=O)N[C@@H](Cc1ccc(O)cc1)C(=O)O) [Example 57]”, the “Slope of the initial increase in fluorescence obtained during incubation with 0.001 mg/ml Chymotrypsin” value in the series on Chymotrypsin (setting [2]) amounted to 1.65. The “Slope of the initial increase in fluorescence obtained during incubation with 0.001 mg/ml Trypsin” value in the series on Trypsin (setting [2]) is given as 1.59. For the same substance, the “RT” value in series [1] is listed as 5.73 min.

For “N-dodecanoyl-Ala-Ala-Arg-Tyr-OH (Lauroyl-AARY-OH; SMILES CCCCCCCCCCCC(=O)N[C@@H](C)C(=O)N[C@@H](C)C(=O)N[C@@H](CCCNC(=N)N)C(=O)N[C@@H](Cc1ccc(O)cc1)C(=O)O) [Example 58]”, in the series with Chymotrypsin (setting [2]), the “Slope of the initial increase in fluorescence obtained during incubation with 0.001 mg/ml Chymotrypsin” value came out at 0.28. The “Slope of the initial increase in fluorescence obtained during incubation with 0.001 mg/ml Trypsin” value in the series on Trypsin (setting [2]) was found to be 1.98. Besides, in series [1], the “RT” value was found to be 4.87 min.

In the case of “N-dodecanoyl-Ala-Ala-Asn-Tyr-OH (Lauroyl-AANY-OH; SMILES CCCCCCCCCCCC(=O)N[C@@H](C)C(=O)N[C@@H](C)C(=O)N[C@@H](CC(N)=O)C(=O)N[C@@H](Cc1ccc(O)cc1)C(=O)O) [Example 59]”, the “Slope of the initial increase in fluorescence obtained during incubation with 0.001 mg/ml Chymotrypsin” value in the series on Chymotrypsin (setting [2]) is given as 1.79. Further, the “Slope of the initial increase in fluorescence obtained during incubation with 0.001 mg/ml Trypsin” value in the series on Trypsin (setting [2]) was 1.72. Also, the “RT” value in series [1] turned out to be 7.88 min.

For “N-dodecanoyl-Ala-Ala-Asp-Tyr-OH (Lauroyl-AADY-OH; SMILES CCCCCCCCCCCC(=O)N[C@@H](C)C(=O)N[C@@H](C)C(=O)N[C@@H](CC(=O)O)C(=O)N[C@@H](Cc1ccc(O)cc1)C(=O)O) [Example 60]”, in the series on Chymotrypsin (setting [2]), the “Slope of the initial increase in fluorescence obtained during incubation with 0.001 mg/ml Chymotrypsin” value turned out to be 0.91. For the same substance, in the series with Trypsin (setting [2]), the “Slope of the initial increase in fluorescence obtained during incubation with 0.001 mg/ml Trypsin” value is 1.73. In addition, the “RT” value in series [1] was determined as 4.33 min.

For the substance “N-dodecanoyl-Ala-Ala-Pro-Phe-Pro-OH [Example 24]”, the EC50 in the series with Chymotrypsin turned out to be 379 µM. Further, the “RT” value in series [1] worked out at 6.88 min.

“N-dodecanoyl-Ala-Ala-Pro-Tyr-OH [Example 17] (Lauroyl-AAPY-OH; SMILES CCCCCCCCCCCC(=O)N[C@@H](C)C(=O)N[C@@H](C)C(=O)N1CCC[C@H]1C(=O)N[C@@H](Cc1ccc(O)cc1)C(=O)O)”: the “RT” value in series [1] is 5.83 min.

Regarding “N-dodecanoyl-γGlu-Ala-Ala-Pro-Arg-OH [Example 25]”, in the series with Chymotrypsin, the EC50 was over 500 µM. Moreover, the “RT” value in series [1] was found to be 3.66 min.

As to “N-dodecanoyl-γGlu-Ala-Pro-Arg-OH (Lauroyl-[γGlu]APR-OH; SMILES CCCCCCCCCCCC(=O)N[C@@H](CCC(=O)N[C@@H](C)C(=O)N1CCC[C@H]1C(=O)N[C@@H](CCCNC(=N)N)C(=O)O)C(=O)O) [Example 21]”, the EC50 in the series on Chymotrypsin is over 500 µM. Besides, the “RT” value in series [1] was 3.66 min.

For the substance “N-dodecanoyl-γGlu-Ala-Pro-Phe-OH (Lauroyl-[γGlu]APF-OH; SMILES CCCCCCCCCCCC(=O)N[C@@H](CCC(=O)N[C@@H](C)C(=O)N1CCC[C@H]1C(=O)N[C@@H](Cc1ccccc1)C(=O)O)C(=O)O) [Example 22]”, the EC50 with Chymotrypsin was over 500 µM. The “RT” value in series [1] stood at 4.09 min.

As for “N-tetradecanoyl-Lys-Ala-Arg-Pro-Phe-OH [Example 193]”, the EC50 in the series with Chymotrypsin worked out at 90 µM; with Trypsin, 169 µM.

For the substance “N-tetradecanoyl-Thr-Ala-Ala-Pro-Phe-OH [Example 173]”, the EC50 in the series on Chymotrypsin was 51 µM; in the series on Trypsin, 93 µM.

Regarding “N-tetradecanoyl-Thr-Ala-Ala-Pro-Tyr-OH [Example 158]”, the EC50 was 58 µM with Chymotrypsin and 112 µM with Trypsin.

“N-tetradecanoyl-Trp-Pro-Tyr-OH [Example 153]”: the EC50 in the series on Chymotrypsin came out at 38 µM; in the series on Trypsin, 43 µM.

“N-tetradecanoyl-bAsp-Ala-Ala-Pro-Phe-OH [Example 164]”: the EC50 in the series on Chymotrypsin was found to be 54 µM; in the series on Trypsin, 343 µM.

With “N-tetradecanoyl-bAsp-Ala-Pro-Phe-OH (Myristoyl-[βAsp]APF-OH; SMILES CCCCCCCCCCCCCC(=O)N[C@@H](CC(=O)N[C@@H](C)C(=O)N1CCC[C@H]1C(=O)N[C@@H](Cc1ccccc1)C(=O)O)C(=O)O) [Example 165]”, the EC50 in the series on Chymotrypsin was determined as 154 µM; with Trypsin it was 120 µM.

For the substance “N-tetradecanoyl-eLys-His-Ala-Arg-Pro-Phe-OH [Example 196]”, the EC50 amounted to 6 µM in the series with Chymotrypsin and 75 µM in the series with Trypsin.

For “N-tetradecanoyl-βAla-βAla-βAla-βAla-Pro-Phe-OH [Example 137]”, the EC50 in the series with Chymotrypsin was over 500 µM. Moreover, the “RT” value in series [1] is listed as 7.7 min.

For the substance “N-tetradecanoyl-γGlu-Ala-Arg-Pro-Phe-OH [Example 179]”, the results for the EC50 in the series on Chymotrypsin and in the series on Trypsin were 84 µM and 80 µM, respectively.

In the case of “N-tetradecanoyl-γGlu-Ala-Pro-D-Trp-OH [Example 177]”, the EC50 worked out at 95 µM in the series with Chymotrypsin and 200 µM in the series with Trypsin.

Take “N-tetradecanoyl-γGlu-Ala-Pro-Trp-OH (Myristoyl-[γGlu]APW-OH; SMILES CCCCCCCCCCCCCC(=O)N[C@@H](CCC(=O)N[C@@H](C)C(=O)N1CCC[C@H]1C(=O)N[C@@H](Cc1c[nH]c2ccccc12)C(=O)O)C(=O)O) [Example 176]”: the EC50 in the series on Chymotrypsin was 105 µM; with Trypsin, 63 µM.

As for “N-tetradecanoyl-γGlu-D-Ala-D-Ala-D-Pro-D-Phe-OH [Example 156]”, the EC50 with Chymotrypsin is 428 µM; in the series on Trypsin it was over 500 µM.

Take “N-tetradecanoyl-γGlu-His-Ala-Arg-Pro-Phe-OH [Example 194]”: the results for the EC50 in the series with Chymotrypsin and in the series on Trypsin were 19 µM and 84 µM, respectively.

For “N-tetradecanoyl-γGlu-βAla-βAla-Pro-Phe-OH [Example 139]”, the EC50 in the series on Chymotrypsin is over 500 µM. In addition, in series [1], the “RT” value worked out at 4.95 min.
